PubChem BioAssay (NCI)
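1) Cells in 96-well plates. 2) Compound, 48 h, 5 concentrations. 3) Linear interpolation between surrounding doses. 4) Unreached endpoint = highest concentration. Abbreviation: GI50, concentration required for 50% inhibition of growth. The concentration for full growth arrest is given as TGI.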

Columns and labels:
Assay in all cases: growth of human tumour cells (NCI), 48 h
ACHN renal = test system: ACHN renal
EKVX NSCLC = test system: EKVX NSCLC
MALME-3M melanoma = test system: MALME-3M melanoma
NCI-H226 lung = test system: NCI-H226 lung
SF-295 CNS = test system: SF-295 CNS
SF-539 CNS = test system: SF-539 CNS
SN12C renal = test system: SN12C renal
SNB-19 CNS = test system: SNB-19 CNS
SNB-75 CNS = test system: SNB-75 CNS
HS 578T breast = test system: HS 578T breast

Row | Structure (SMILES) | TGI (ACHN renal) | TGI (EKVX NSCLC) | TGI (MALME-3M melanoma) | TGI (NCI-H226 lung) | TGI (SF-295 CNS) | TGI (SF-539 CNS) | TGI (SN12C renal) | TGI (SNB-19 CNS) | TGI (SNB-75 CNS) | GI50 (ACHN renal) | GI50 (EKVX NSCLC) | GI50 (HS 578T breast) | TGI (HS 578T breast) | GI50 (SF-295 CNS) | GI50 (SF-539 CNS) | GI50 (SN12C renal) | GI50 (SNB-19 CNS) | GI50 (SNB-75 CNS) | GI50 (MALME-3M melanoma) | GI50 (NCI-H226 lung)
1 | Cc1ccccc1C1CC(c2ccccc2)=NO1 (centres undefined) | > 100 µM | > 100 µM | > 100 µM | > 100 µM | > 100 µM | > 100 µM | > 100 µM | > 100 µM | > 100 µM |  |  |  |  |  |  |  |  |  |  | 
2 | CCCCCC[C@H](C)NC(=O)c1ccc(Nc2nc3ccccc3c3occc23)cc1 | 40 µM | 5.42 µM |  |  | > 100 µM | 5.31 µM | 97.3 µM | > 100 µM | 7.69 µM | 13.7 µM | 2.2 µM | 4.68 µM | 67.6 µM | 2.62 µM | 2.48 µM | 24.5 µM | 5.15 µM | 3.99 µM |  | 
3 | Cc1cc(Cl)ccc1NC(=O)C(=O)C(C(=O)c1ccccc1)C1OC(=O)c2ccccc21 (centres undefined) | > 100 µM | > 100 µM | > 100 µM | > 100 µM | > 100 µM | > 100 µM | > 100 µM | > 100 µM | > 100 µM |  |  |  |  |  |  |  |  |  |  | 
4 | CC(C)C1N2CCCCC2[C@@H]2c3[nH]c4ccccc4c3CCN12 (some centres undefined) | > 100 µM | > 100 µM |  |  | > 100 µM | > 100 µM | > 100 µM | > 100 µM | > 100 µM |  |  |  |  |  |  |  |  |  |  | 
5 | CCOCc1cc(=O)c2c(OC)cc3c(c2o1)CCC(C)(C)O3 | > 100 µM | > 100 µM | > 100 µM |  | > 100 µM | > 100 µM | > 100 µM |  | > 100 µM |  |  |  |  |  |  |  |  |  |  | 
6 | COC(=O)C(/C(=N\NC(N)=S)C(=O)Nc1ccccc1[N+](=O)[O-])c1cnc2ccccc2n1 (centres undefined) | > 100 µM | > 100 µM | > 100 µM | > 100 µM | > 100 µM | > 100 µM | > 100 µM | > 100 µM | > 100 µM |  |  |  |  |  |  |  |  |  |  | 
7 | Cc1ccc(S(=O)(=O)Nc2ccc(-c3cc(-c4cccc(F)c4)c(C#N)c(N)n3)cc2)cc1 | 2.92 µM | 6.32 µM | 3.25 µM |  | 14.5 µM | 3.02 µM | 7.11 µM | 11.6 µM |  | 1.58 µM | 2.17 µM | 2.28 µM | 7.48 µM | 3.33 µM | 1.56 µM | 2.2 µM | 3.15 µM |  | 1.61 µM | 
8 | Cc1ccc2nc(NC(=O)/C(=N\NC(=S)NN)C3C(=O)NC(=S)NC3=O)sc2c1 | > 100 µM | > 100 µM | > 100 µM | > 100 µM | > 100 µM | > 100 µM | > 100 µM | > 100 µM | > 100 µM |  |  |  |  |  |  |  |  |  |  | 
9 | c1ccc(N/N=C2\NN=C(c3ccccc3)CS2)cc1 | 19.1 µM | 37.4 µM |  | > 100 µM | 48.6 µM | 41.7 µM |  | 85.9 µM |  |  |  |  |  |  |  |  |  |  |  | 
10 | Cc1ccc(NC(=O)OCC(COc2ccc(Cl)cc2Cl)OC(=O)Nc2ccc(C)cc2)cc1 (centres undefined) | > 100 µM | > 100 µM | > 100 µM | > 100 µM | > 100 µM | > 100 µM | > 100 µM | > 100 µM | 68.2 µM |  |  |  |  |  |  |  |  |  |  | 
11 | CCOP1(=O)C=C(C)C(=C(Cl)Cl)C(C)=C1 (centres undefined) | 68.1 µM | 38.3 µM | 47.3 µM | 21.2 µM | 39.8 µM | 66.7 µM | > 100 µM | 50.3 µM | > 100 µM |  |  |  |  |  |  |  |  | 30 µM |  | 3.44 µM
12 | CCN(CC)CCn1c2ccccc2c(=O)c2c(OC)ccc(OC)c21 | > 100 µM | > 100 µM | > 100 µM | 97.3 µM | > 100 µM | > 100 µM | > 100 µM | > 100 µM |  |  |  |  |  |  |  |  |  |  |  | 
13 | C1C[OH+]CC[OH+]CCNCC[OH+]CC[OH+]CCN1.Cl.[Cl-].[Pt+4] | > 100 µM | > 100 µM |  |  | > 100 µM | > 100 µM | > 100 µM | > 100 µM |  | > 100 µM | > 100 µM |  |  | > 100 µM | > 100 µM | > 100 µM | > 100 µM |  |  | 
14 | CCCCCCCC(=O)[O][Hg][CH2]C1COC([CH2][Hg][O]C(=O)CCCCCCC)CO1 (centres undefined) | 26.9 µM | 66.4 µM | 11.6 µM |  | 36.5 µM | 37.4 µM | 30.5 µM | 29.5 µM | 34.6 µM | 13.9 µM | 30.8 µM | 16.8 µM | 46.3 µM | 19 µM | 17.5 µM | 15.7 µM | 16.1 µM | 15.3 µM | 3.24 µM | 
15 | COC[C@H](C)N=CN1CCc2ccccc2C1(Cc1ccccc1)Cc1ccccc1 | 59.8 µM | 92.6 µM | 24.7 µM | 37 µM | 28.3 µM | 33.6 µM | 23.8 µM | 32.5 µM | 43 µM |  |  |  |  |  |  |  |  |  |  | 
16 | O=C1C2C3C=CC(C2C(=O)N1CN1CCSCC1)C1C2C(=O)N(CN4CCSCC4)C(=O)C2C31 (centres undefined) | > 100 µM | > 100 µM | > 100 µM | > 100 µM | > 100 µM | > 100 µM | > 100 µM | > 100 µM | > 93 µM |  |  |  |  |  |  |  |  | 38.6 µM |  | 
17 | CCN(CC)CCNc1ccc2nc(C)n3c4ccc(O)cc4c(=O)c1c23 | 3.78 µM |  | 16.4 µM | 2.13 µM | 9.81 µM | 16.2 µM | 12.4 µM | 3.26 µM | 14.7 µM |  |  |  |  |  |  |  |  |  |  | 
18 | COc1ccc2nc(NC(=O)C(=O)NNC(=O)c3ccncc3)sc2c1 | > 100 µM | > 100 µM | > 100 µM | > 100 µM | > 100 µM | > 100 µM | > 100 µM | > 100 µM | > 100 µM |  |  |  |  |  |  |  |  |  |  | 
19 | CSc1ccc(C(=O)/C=C/c2ccccc2Cl)cc1 | 28.5 µM | 37 µM |  | 37.6 µM | 33.1 µM | 33.1 µM | 32.7 µM | 61.2 µM | 45.2 µM | 15 µM | 19.7 µM | 21.9 µM | 55.6 µM | 16.1 µM | 16.5 µM | 17.3 µM | 26.5 µM | 22.2 µM |  | 15.8 µM
20 | c1ccc2c(NCCCCCCNc3cccc4ccccc34)cccc2c1 | > 100 µM | > 100 µM | > 100 µM | > 100 µM | > 100 µM | > 100 µM | > 100 µM | > 100 µM | > 100 µM |  |  |  |  |  |  |  |  |  |  | 
